This assay deals with human ALK5 (Homo sapiens (Human), UniProt P36897). Description: ADP-GLO Kinases assay, inhibition of ALK5 enzymatic activity. The assay is classed as biochemical. As for the experimental part:
The enzymatic activity of compounds of the present invention was monitored measuring the formation of ADP using the ADP-GLO Kinases assay. Following the incubation of the purified enzyme, a substrate and ATP, the produced ADP was converted into ATP, which in turn was converted into light by Ultra-Glo Luciferase. The luminescent signal positively correlated with ADP amount and kinase activity. Briefly, the kinase reaction was performed by incubating 2.6 nM of the purified, commercially available human ALK5 (recombinant TGF β1 N-term GST-tagged, 80-end), a final concentration of TGFβ1 peptide 94.5 μM (Promega, T36-58) and ultra-pure ATP (Promega V915B). […] All reactions/incubations were performed at 25° C. Compound and ALK5 kinase were mixed and incubated for 15 mins. Reactions were initiated by addition of ATP at a final concentration in the assay of 0.83 μM. After an incubation of 150 min, the reaction was stopped, and ADP production detected with ADP-Glo kit according to manufacturer's indications. The assay was performed in 384-well format and was validated using a selection of reference compounds that was tested in 11 point concentration-response curve.

The mark [1] stands for this setting: Table 4, potency bins, purified recombinant human ALK5, ADP-Glo, 25° C., read-out: ALK5 IC50.

This note sets out measurements from US20240116947A1, “PYRIDO OXAZINE DERIVATIVES AS ALK5 INHIBITORS” (CHIESI FARMACEUTICI S.P.A., priority 2020, published 2024).

Read-outs that look alike come from different tables or passages of the source.

human ALK5, sequence (P36897 80-503 limits assumed): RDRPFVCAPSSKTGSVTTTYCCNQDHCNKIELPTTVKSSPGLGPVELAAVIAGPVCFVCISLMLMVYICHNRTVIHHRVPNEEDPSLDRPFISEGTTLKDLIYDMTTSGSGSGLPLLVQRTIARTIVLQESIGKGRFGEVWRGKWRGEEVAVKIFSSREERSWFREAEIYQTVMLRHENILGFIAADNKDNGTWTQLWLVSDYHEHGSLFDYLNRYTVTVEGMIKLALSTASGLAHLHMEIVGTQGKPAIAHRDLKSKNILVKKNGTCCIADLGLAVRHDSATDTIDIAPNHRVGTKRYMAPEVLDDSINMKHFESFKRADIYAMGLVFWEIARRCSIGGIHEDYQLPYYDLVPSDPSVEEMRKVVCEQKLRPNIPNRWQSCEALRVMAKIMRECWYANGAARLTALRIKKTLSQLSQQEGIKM

For the molecule `Fc1ccc(Cl)cc1-c1cc2c(cn1)OCCN2c1ccn[nH]1` [Example C1, 5-[7-(5-chloro-2-fluorophenyl)-1H,2H,3H-pyrido[3,4-b][1,4]oxazin-1-yl]-1H-pyrazole, reference compound], the IC50 was 9200 nM (Table 5, comparative examples, same in vitro assay, read-out: ALK5 IC50) and above 9000 nM (statements in running text, read-out: potency (IC50) with respect to inhibitory activity on ALK5).

With `CN1CCN(CCC(=O)Nc2cc(N3CCOc4cnc(-c5cc(Cl)ncc5F)cc43)ccn2)CC1` [Example 42, N-{4-[7-(2-chloro-5-fluoropyridin-4-yl)-1H,2H,3H-pyrido[3,4-b][1,4]oxazin-1-yl]pyridin-2-yl}-3-(4-methylpiperazin-1-yl)propanamide], the IC50 under setting [1] is below 1 nM. With `O=C(CCN(CCO)CCO)Nc1cc(N2CCOc3cnc(-c4cc(Cl)ccc4F)cc32)ccn1` [Example 18, 3-[bis(2-hydroxyethyl)amino]-N-{4-[7-(5-chloro-2-fluorophenyl)-1H,2H,3H-pyrido[3,4-b][1,4]oxazin-1-yl]pyridin-2-yl}propanamide], the IC50 under setting [1] is below 1 nM. On the same count and under the same terms, the figure for `CN1CC2(C1)CN(CC(=O)Nc1cc(N3CCOc4cnc(-c5cc(Cl)ccc5F)cc43)ccn1)CCO2` [Example 54, N-{4-[7-(5-chloro-2-fluorophenyl)-1H,2H,3H-pyrido[3,4-b][1,4]oxazin-1-yl]pyridin-2-yl}-2-{2-methyl-5-oxa-2,8-diazaspiro[3.5]nonan-8-yl}acetamide] is below 1 nM. For the molecule `Nc1cc(N2CCOc3cnc(-c4nc(Cl)ccc4F)cc32)ccn1` [Example 7, 4-[7-(6-Chloro-3-fluoropyridin-2-yl)-1H,2H,3H-pyrido[3,4-b][1,4]oxazin-1-yl]pyridin-2-amine], the IC50 under setting [1] was in the range of 5 to 10 nM.

On to `CS(=O)(=O)NCCC(=O)Nc1cc(N2CCOc3cnc(-c4cc(Cl)ccc4F)cc32)ccn1` [Example 24, N-{4-[7-(5-chloro-2-fluorophenyl)-1H,2H,3H-pyrido[3,4-b][1,4]oxazin-1-yl]pyridin-2-yl}-3-methanesulfonamidopropanamide], for which, under setting [1], the IC50 was below 1 nM. For the molecule `O=C(CCN1CCN(CCN(CCO)CCO)CC1)Nc1cc(N2CCOc3cnc(-c4cc(Cl)ccc4F)cc32)ccn1` [Example 36, 3-(4-{2-[bis(2-hydroxyethyl)amino]ethyl}piperazin-1-yl)-N-{4-[7-(5-chloro-2-fluorophenyl)-1H,2H,3H-pyrido[3,4-b][1,4]oxazin-1-yl]pyridin-2-yl}propanamide], the IC50 under setting [1] is below 1 nM. `CC(C)c1ccc(F)c(-c2cc3c(cn2)OCCN3c2ccnc(NC(=O)CCN3CCN(C)CC3)c2)c1` [Example 34, N-(4-{7-[2-fluoro-5-(propan-2-yl)phenyl]-1H,2H,3H-pyrido[3,4-b][1,4]oxazin-1-yl}pyridin-2-yl)-3-(4-methylpiperazin-1-yl)propanamide]: under setting [1], the IC50 is below 1 nM.

With `COC(=O)C1CN(CCC(=O)Nc2cc(N3CCOc4cnc(-c5cc(Cl)ccc5F)cc43)ccn2)CCN1` (centres unmarked) [Example 46, Methyl 4-[2-({4-[7-(5-chloro-2-fluorophenyl)-1H,2H,3H-pyrido[3,4-b][1,4]oxazin-1-yl]pyridin-2-yl}carbamoyl)ethyl]piperazine-2-carboxylate], the IC50 under setting [1] was below 1 nM. For the molecule `CN(C)CCC(=O)Nc1cc(N2CCOc3cnc(-c4cc(Cl)ccc4F)cc32)ccn1` [Example 9, N-{4-[7-(5-chloro-2-fluorophenyl)-1H,2H,3H-pyrido[3,4-b][1,4]oxazin-1-yl]pyridin-2-yl}-3-(dimethylamino)propanamide], the IC50 under setting [1] is below 1 nM.

For the molecule `Nc1cc(N2CCOc3cnc(-c4cc(Cl)ccc4F)cc32)ccn1` [Example 3, 4-[7-(5-chloro-2-fluorophenyl)-1H,2H,3H-pyrido[3,4-b][1,4]oxazin-1-yl]pyridin-2-amine], the half-inhibitory concentration (IC50) under setting [1] lay within 1 to 5 nM. As for `CN(CCC(=O)Nc1cc(N2CCOc3cnc(-c4cc(Cl)ccc4F)cc32)ccn1)CCS(C)(=O)=O` [Example 27, N-{4-[7-(5-chloro-2-fluorophenyl)-1H,2H,3H-pyrido[3,4-b][1,4]oxazin-1-yl]pyridin-2-yl}-3-[(2-methanesulfonylethyl)(methyl)amino]propanamide], the IC50 under setting [1] fell in the range of 1 to 5 nM. As to `CN1CCN(CCNC(=O)Nc2cc(N3CCOc4cnc(-c5cc(Cl)ccc5F)cc43)ccn2)CC1` [Example 55, 1-(4-(7-(5-chloro-2-fluorophenyl)-2,3-dihydro-1H-pyrido[3,4-b][1,4]oxazin-1-yl)pyridin-2-yl)-3-(2-(4-methylpiperazin-1-yl)ethyl)urea], the half-maximal inhibitory concentration (IC50) under setting [1] is below 1 nM. On the same count and under the same terms, the figure for `CS(=O)(=O)CCNCCC(=O)Nc1cc(N2CCOc3cnc(-c4cc(Cl)ccc4F)cc32)ccn1` [Example 26, N-{4-[7-(5-chloro-2-fluorophenyl)-1H,2H,3H-pyrido[3,4-b][1,4]oxazin-1-yl]pyridin-2-yl}-3-[(2-methanesulfonylethyl)amino] propanamide] is below 1 nM. For `O=C(CCN1CCNCC1)Nc1cc(N2CCOc3cnc(-c4cc(Cl)ccc4F)cc32)ccn1` [Example 10, N-{4-[7-(5-chloro-2-fluorophenyl)-1H,2H,3H-pyrido[3,4-b][1,4]oxazin-1-yl]pyridin-2-yl}-3-(piperazin-1-yl)propanamide], the IC50 under setting [1] was below 1 nM. Take `CNC(=O)CCN1CCN(CCC(=O)Nc2cc(N3CCOc4cnc(-c5cc(Cl)ccc5F)cc43)ccn2)CC1` [Example 31, 3-{4-[2-({4-[7-(5-chloro-2-fluorophenyl)-1H,2H,3H-pyrido[3,4-b][1,4]oxazin-1-yl]pyridin-2-yl}carbamoyl)ethyl]piperazin-1-yl}-N-methylpropanamide]: the IC50 under setting [1] is below 1 nM.

For the molecule `O=C(CCN1CCN(CCC(=O)Nc2cc(N3CCOc4cnc(-c5cc(Cl)ccc5F)cc43)ccn2)CC1)NCCO` [Example 35, 3-{4-[2-({4-[7-(5-chloro-2-fluorophenyl)-1H,2H,3H-pyrido[3,4-b][1,4]oxazin-1-yl]pyridin-2-yl}carbamoyl)ethyl]piperazin-1-yl}-N-(2-hydroxyethyl)propanamide], the IC50 under setting [1] was below 1 nM. Still for that read-out and setting: next, `CS(=O)(=O)NCCN1CCN(CCC(=O)Nc2cc(N3CCOc4cnc(-c5cc(Cl)ccc5F)cc43)ccn2)CC1` [Example 30, N-{4-[7-(5-chloro-2-fluorophenyl)-1H,2H,3H-pyrido[3,4-b][1,4]oxazin-1-yl]pyridin-2-yl}-3-[4-(2-methanesulfonamidoethyl)piperazin-1-yl]propanamide]: below 1 nM; `COC(=O)C1CN(C)CCN1CCC(=O)Nc1cc(N2CCOc3cnc(-c4cc(Cl)ccc4F)cc32)ccn1` (centres unmarked) [Example 49, Methyl 1-[2-({4-[7-(5-chloro-2-fluorophenyl)-1H,2H,3H-pyrido[3,4-b][1,4]oxazin-1-yl]pyridin-2-yl}carbamoyl)ethyl]-4-methylpiperazine-2-carboxylate]: below 1 nM; `Fc1ccc(Cl)cc1-c1cc2c(cn1)OCCN2c1ccnc2[nH]ncc12` [Example 15, 7-(5-chloro-2-fluorophenyl)-1-{1H-pyrazolo[3,4-b]pyridin-4-yl}-1H,2H,3H-pyrido[3,4-b][1,4]oxazine]: 1 to 5 nM. As to `Cc1ccc(F)c(-c2cc3c(cn2)OCCN3c2ccnc(N)c2)c1` [Example 11, 4-[7-(2-fluoro-5-methylphenyl)-1H,2H,3H-pyrido[3,4-b][1,4]oxazin-1-yl]pyridin-2-amine], under setting [1], the IC50 lay in the range of 5 to 10 nM.

Consider `CN1CCN(CCC(=O)Nc2cc(N3CCOc4c3cc(-c3cc(Cl)ccc3F)nc4C(F)(F)F)ccn2)CC1` [Example 56], for which the IC50 under setting [1] lay within 5 to 10 nM. Turning to `CN1CCN(CCC(=O)Nc2cc(N3CCOc4cnc(-c5cc(C6CC6)ccc5F)cc43)ccn2)CC1` [Example 33, N-{4-[7-(5-cyclopropyl-2-fluorophenyl)-1H,2H,3H-pyrido[3,4-b][1,4]oxazin-1-yl]pyridin-2-yl}-3-(4-methylpiperazin-1-yl)propanamide], under setting [1], the IC50 is below 1 nM.

On to `CN1CCN(CCC(=O)Nc2cc(N3CCOc4c3cc(-c3cc(Cl)ccc3F)nc4N)ccn2)CC1` [Example 51, N-{4-[5-amino-7-(5-chloro-2-fluorophenyl)-1H,2H,3H-pyrido[3,4-b][1,4]oxazin-1-yl]pyridin-2-yl}-3-(4-methylpiperazin-1-yl)propanamide], for which, under setting [1], the IC50 was below 1 nM. Still for that read-out and setting: next, `COC(=O)CC1CN(C)CCN1CCC(=O)Nc1cc(N2CCOc3cnc(-c4cc(Cl)ccc4F)cc32)ccn1` (centres unmarked) [Example 50, Methyl 2-{1-[2-({4-[7-(5-chloro-2-fluorophenyl)-1H,2H,3H-pyrido[3,4-b][1,4]oxazin-1-yl]pyridin-2-yl}carbamoyl)ethyl]-4-methylpiperazin-2-yl}acetate]: below 1 nM; `CN1CCN(CCC(=O)Nc2cc(N3CCOc4cnc(-c5cc(Cl)ccc5F)cc43)ccn2)CC1=O` [Example 22, N-{4-[7-(5-chloro-2-fluorophenyl)-1H,2H,3H-pyrido[3,4-b][1,4]oxazin-1-yl]pyridin-2-yl}-3-(4-methyl-3-oxopiperazin-1-yl)propanamide]: below 1 nM; `CN1CCN(CCC(=O)Nc2cc(N3CCOc4cnc(-c5cc(Cl)ccc5F)cc43)ccn2)CC1` [Example 14, N-{4-[7-(5-chloro-2-fluorophenyl)-1H,2H,3H-pyrido[3,4-b][1,4]oxazin-1-yl]pyridin-2-yl}-3-(4-methylpiperazin-1-yl)propanamide]: below 1 nM.

On to `Nc1cc(N2CCOc3cnc(-c4cc(F)ccc4F)cc32)ccn1` [Example 4, 4-[7-(2,5-difluorophenyl)-1H,2H,3H-pyrido[3,4-b][1,4]oxazin-1-yl]pyridin-2-amine], for which the IC50 under setting [1] fell in the range of 5 to 10 nM.
